Assay results from ChEMBL document CHEMBL3045313, “Reduced Lantadenes A and B: semi-synthetic synthesis, selective cytotoxicity, apoptosis induction and inhibition of NO, TNF- production in HL-60 cells” (Med Chem Res, 2013).
The source made the active and inactive calls. The rule behind the calls is not given here.

Experiments:
HL-60 [1] = assay: Inhibition of nitrite production in Homo sapiens (human) HL60 cells at 5 to 15 uM after 12 hr by Griess assay; type: functional, cell-based
HL-60 [2] = assay: Cell cycle arrest in Homo sapiens (human) HL60 cells assessed as accumulation at G2/M phase at 15 uM after 9 hr by propidium iodide staining-based FACS flow cytometric analysis (reference value: 9 +/- 1.2%); type: functional
HL-60 [3] = assay: Downregulation of NF-kappaB expression in Homo sapiens (human) HL60 cells at 15 uM after 4 hr by RT-PCR analysis; type: functional, cell-based
HL-60 [4] = assay: Inhibition of TNFalpha production in Homo sapiens (human) HL60 cells after 6 hr by ELISA; type: functional, cell-based
HL-60 [5] = assay: Cell cycle arrest in Homo sapiens (human) HL60 cells assessed as accumulation at sub-G1 phase at 15 uM after 6 hr by propidium iodide staining-based FACS flow cytometric analysis (reference value: 0.1%); type: functional
HL-60 [6] = assay: Cell cycle arrest in Homo sapiens (human) HL60 cells assessed as accumulation at S phase at 15 uM after 3 hr by propidium iodide staining-based FACS flow cytometric analysis (reference value: 56.8 +/- 2.4%); type: functional
HL-60 [7] = assay: Cell cycle arrest in Homo sapiens (human) HL60 cells assessed as accumulation at S phase at 15 uM after 6 hr by propidium iodide staining-based FACS flow cytometric analysis (reference value: 56.8 +/- 2.4%); type: functional
HL-60 [8] = assay: Cell cycle arrest in Homo sapiens (human) HL60 cells assessed as accumulation at S phase at 15 uM after 9 hr by propidium iodide staining-based FACS flow cytometric analysis (reference value: 56.8 +/- 2.4%); type: functional
HL-60 [9] = assay: Induction of apoptosis in Homo sapiens (human) HL60 cells assessed as appearance of apoptotic bodies at 15 uM after 24 hr by hoechst 33258 staining-based fluorescence microscopic analysis relative to control; type: functional, cell-based
HL-60 [10] = assay: Downregulation of iNOS expression in Homo sapiens (human) HL60 cells at 15 uM after 4 hr by RT-PCR analysis relative to control; type: functional, cell-based
HL-60 [11] = assay: Cell cycle arrest in Homo sapiens (human) HL60 cells assessed as accumulation at G0/G1 phase at 15 uM after 9 hr by propidium iodide staining-based FACS flow cytometric analysis (reference value: 36.2 +/- 2.4%); type: functional
MCF7 = assay: Cytotoxicity against Homo sapiens (human) MCF7 cells assessed as growth inhibition after 48 hr by MTT assay; type: functional, cell-based; details: MCF7, 48 h
HL-60 [12] = assay: Induction of apoptosis in Homo sapiens (human) HL60 cells assessed as DNA fragmentation at 15 uM after 24 hr by hoechst 33258 staining-based fluorescence microscopic analysis relative to control; type: functional, cell-based
HCT-116 = assay: Cytotoxicity against Homo sapiens (human) HCT116 cells assessed as growth inhibition after 48 hr by MTT assay; type: functional, cell-based; details: HCT-116, 48 h
HL-60 [13] = assay: Cell cycle arrest in Homo sapiens (human) HL60 cells assessed as accumulation at G2/M phase at 15 uM after 6 hr by propidium iodide staining-based FACS flow cytometric analysis (reference value: 9 +/- 1.2%); type: functional
HL-60 [14] = assay: Cell cycle arrest in Homo sapiens (human) HL60 cells assessed as accumulation at sub-G1 phase at 15 uM after 12 hr by propidium iodide staining-based FACS flow cytometric analysis (reference value: 0.1%); type: functional
HL-60 [15] = assay: Cytotoxicity against Homo sapiens (human) HL60 cells assessed as growth inhibition after 48 hr by MTT assay; type: functional, cell-based; details: HL-60, 48 h
HL-60 [16] = assay: Cell cycle arrest in Homo sapiens (human) HL60 cells assessed as accumulation at G0/G1 phase at 15 uM after 12 hr by propidium iodide staining-based FACS flow cytometric analysis (reference value: 36.2 +/- 2.4%); type: functional
HL-60 [17] = assay: Inhibition of nitrite production in Homo sapiens (human) HL60 cells after 12 hr by Griess assay; type: functional, cell-based
HSC-2 = assay: Cytotoxicity against Homo sapiens (human) HSC2 cells assessed as growth inhibition after 48 hr by MTT assay; type: functional, cell-based; details: HSC-2, 48 h
HL-60 [18] = assay: Upregulation of caspase-3 expression in Homo sapiens (human) HL60 cells at 15 uM after 4 hr by RT-PCR analysis; type: functional, cell-based
HL-60 [19] = assay: Upregulation of bax expression in Homo sapiens (human) HL60 cells at 15 uM after 4 hr by RT-PCR analysis; type: functional, cell-based
HL-60 [20] = assay: Cell cycle arrest in Homo sapiens (human) HL60 cells assessed as accumulation at G2/M phase at 15 uM after 12 hr by propidium iodide staining-based FACS flow cytometric analysis (reference value: 8.2 +/- 0.4%)
HL-60 [21] = assay: Cell cycle arrest in Homo sapiens (human) HL60 cells assessed as accumulation at G2/M phase at 15 uM after 3 hr by propidium iodide staining-based FACS flow cytometric analysis (reference value: 9 +/- 1.2%); type: functional
HL-60 [22] = assay: Downregulation of iNOS expression in Homo sapiens (human) HL60 cells after 12 hr by scanning densitometric analysis; type: functional, cell-based
HL-60 [23] = assay: Downregulation of bcl-2 expression in Homo sapiens (human) HL60 cells at 15 uM after 4 hr by RT-PCR analysis; type: functional, cell-based
HL-60 [24] = assay: Induction of apoptosis in Homo sapiens (human) HL60 cells assessed as caspase 3 activation at 15 uM after 24 hr by colorimetric analysis; type: functional, cell-based
HL-60 [25] = assay: Cell cycle arrest in Homo sapiens (human) HL60 cells assessed as accumulation at G0/G1 phase at 15 uM after 3 hr by propidium iodide staining-based FACS flow cytometric analysis (reference value: 36.2 +/- 2.4%); type: functional
HL-60 [26] = assay: Cell cycle arrest in Homo sapiens (human) HL60 cells assessed as accumulation at S phase at 15 uM after 12 hr by propidium iodide staining-based FACS flow cytometric analysis (reference value: 56.8 +/- 2.4%); type: functional
HL-60 [27] = assay: Cell cycle arrest in Homo sapiens (human) HL60 cells assessed as accumulation at G0/G1 phase at 15 uM after 6 hr by propidium iodide staining-based FACS flow cytometric analysis (reference value: 36.2 +/- 2.4%); type: functional
HL-60 [28] = assay: Cell cycle arrest in Homo sapiens (human) HL60 cells assessed as accumulation at sub-G1 phase at 15 uM after 3 hr by propidium iodide staining-based FACS flow cytometric analysis (reference value: 0.1%); type: functional
Vero = assay: Cytotoxicity against Chlorocebus aethiops (African green monkey) Vero cells assessed as growth inhibition after 48 hr by MTT assay; type: cell-based; details: Chlorocebus sabaeus
HL-60 [29] = assay: Cell cycle arrest in Homo sapiens (human) HL60 cells assessed as accumulation at sub-G1 phase at 15 uM after 9 hr by propidium iodide staining-based FACS flow cytometric analysis (reference value: 0.1%); type: functional

For `CNC(=N)NCCC[C@H](N)C(=O)O`, the inhibition (HL-60 [1]) was “Active”.

In the case of `CC(C)=CC(=O)O[C@@H]1CC(C)(C)C[C@H]2C3=CC[C@@H]4[C@@]5(C)CC[C@H](O)C(C)(C)[C@@H]5CC[C@@]4(C)[C@]3(C)CC[C@@]12C(=O)O` [Reduced Lantadene B], the Activity (HL-60 [2]) is reported as 19.9%, the Activity (HL-60 [3]) is reported as “Active” and the inhibition (HL-60 [4]) is reported as “Dose-dependent effect”. For the same compound, the Activity (HL-60 [5]) was 0.5%, the Activity (HL-60 [6]) was 55.1% and the Activity (HL-60 [7]) was 62.1%. The Activity (HL-60 [8]) was 61.6%, the Activity (HL-60 [9]) was “Active” and the Activity (HL-60 [10]) was “Active”. The Activity (HL-60 [11]) was 12.6%, the IC50 (MCF7) was 5.2 µM and the Activity (HL-60 [12]) was “Dose-dependent effect”. It also gave an IC50 (HCT-116) of 1.8 µM, an Activity (HL-60 [13]) of 14.8% and an Activity (HL-60 [14]) of 3.4%. The IC50 (HL-60 [15]) was 2.1 µM, the Activity (HL-60 [16]) was 13.9% and the inhibition (HL-60 [17]) was “Dose-dependent effect”. The IC50 (HSC-2) was 6.4 µM, the Activity (HL-60 [18]) was “Active” and the Activity (HL-60 [19]) was “Active”. For the same compound, the Activity (HL-60 [20]) was 40.8%, the Activity (HL-60 [21]) was 7.4% and the Activity (HL-60 [22]) was “Dose-dependent effect”. The Activity (HL-60 [23]) was “Active”, the Activity (HL-60 [24]) was “Active” and the Activity (HL-60 [25]) was 32.8%. The Activity (HL-60 [26]) was 42.1%, the Activity (HL-60 [27]) was 18.2% and the Activity (HL-60 [28]) was 0.3%. The IC50 (Vero) was over 50 µM.

`C/C=C(/C)C(=O)O[C@@H]1CC(C)(C)C[C@H]2C3=CC[C@@H]4[C@@]5(C)CC[C@H](O)C(C)(C)[C@@H]5CC[C@@]4(C)[C@]3(C)CC[C@@]12C(=O)O` [Reduced Lantadene A] was tested, and the Activity (HL-60 [2]) was 20.8%, the Activity (HL-60 [3]) was “Active” and the inhibition (HL-60 [4]) was “Dose-dependent effect”. For the same compound, the Activity (HL-60 [5]) was 0.4%, the Activity (HL-60 [6]) was 57% and the Activity (HL-60 [7]) was 64.2%. For the same compound, the Activity (HL-60 [8]) was 63.6%, the Activity (HL-60 [9]) was “Active” and the Activity (HL-60 [10]) was “Active”. For the same compound, the Activity (HL-60 [11]) was 14%, the IC50 (MCF7) was 6 µM and the Activity (HL-60 [29]) was 1.2%. The Activity (HL-60 [12]) was “Dose-dependent effect”, the IC50 (HCT-116) was 1.2 µM and the Activity (HL-60 [13]) was 15.8%. The Activity (HL-60 [14]) was 3.2%, the IC50 (HL-60 [15]) was 1.5 µM and the Activity (HL-60 [16]) was 15.4%. For the same compound, the inhibition (HL-60 [17]) was “Dose-dependent effect”, the IC50 (HSC-2) was 6.1 µM and the Activity (HL-60 [18]) was “Active”. The Activity (HL-60 [19]) was “Active”, the Activity (HL-60 [20]) was 42% and the Activity (HL-60 [21]) was 8.4%. For the same compound, the Activity (HL-60 [22]) was “Dose-dependent effect”, the Activity (HL-60 [23]) was “Active” and the Activity (HL-60 [24]) was “Active”. The Activity (HL-60 [25]) was 34.4%, the Activity (HL-60 [26]) was 44.8% and the Activity (HL-60 [27]) was 20.8%. The Activity (HL-60 [28]) was 0.2% and the IC50 (Vero) was over 50 µM.

`C/C=C(/C)C(=O)O[C@@H]1CC(C)(C)C[C@H]2C3=CC[C@@H]4[C@@]5(C)CCC(=O)C(C)(C)[C@@H]5CC[C@@]4(C)[C@]3(C)CC[C@@]12C(=O)O` [LANTADENE A] gave an IC50 (MCF7) of 25.8 µM, an IC50 (HCT-116) of 13.4 µM and an IC50 (HL-60 [15]) of 19.3 µM. The IC50 (HSC-2) was 50.7 µM and the IC50 (Vero) was over 50 µM.

In the case of `CC(C)=CC(=O)O[C@@H]1CC(C)(C)C[C@@H]2C3=CC[C@@H]4[C@@]5(C)CCC(=O)C(C)(C)[C@@H]5CC[C@@]4(C)[C@]3(C)CC[C@]21C(=O)O` [LANTADENE B], the IC50 (MCF7) is reported as 81.4 µM, the IC50 (HCT-116) is reported as 13.2 µM and the IC50 (HL-60 [15]) is reported as 19.1 µM. For the same compound, the IC50 (HSC-2) was 43 µM and the IC50 (Vero) was over 50 µM.
